What was measured:
[1] = target: T1, CDK2 (Homo sapiens, UniProt P24941); test: HiBiT assay (CDK2 degradation); assay type: cell-based; details: HEK293 clonal line with CRISPR KI HiBiT tag on CDK2, 24 hours, HiBiT Lysis Reagent
T1 construct: HEK293 clonal lines with CRISPR KI HiBiT tag on CDK2 proteins; host or cells: HEK293 clonal line, CRISPR knock-in HiBiT-CDK2, stably expressing LgBiT
Procedure: HEK293 clonal lines with CRISPR KI HiBiT tag on CDK2 proteins and stably expressing LgBiT protein were obtained from Promega (Madison, WI). Cells were plated at 5000 cells per well using Multiflo (BioTek) in 384-well white solid bottom plates (Corning, 3570BC) in 25 ul volume in DMEM media (DMEM, high glucose, HEPES, no phenol red (ThermoFisher Scientific, 21063029)) containing 10% FBS (Corning, 35-075-CV), 1% Penicillin/Streptomycin (ThermoFisher Scientific, 15140-122). Cells were incubated for 16 hours at 37° C., 5% CO2. 75 nL of a compound at 30 μM were dosed into the plate using an Echo® 650 liquid handler (Labcyte). Cells were incubated at 37° C., 5% CO2 for 24 hours. 5 ul of HiBiT Lysis Reagent (Promega, N3030) is added using Combi Multidrop (ThermoFisher Scientific), plates are incubated for 15′ at 37° C., 5% CO2 and then signal was read on a Pherastar FSX using “LUM plus” optic module.
Analysis was performed in Scinamic (Scinamic, Cambridge, MA). Luminescence response (R) was calculated by the formula: response=100*(S−N)/(P−N) where S is the signal of the well, N and P the mean negative and positive control values respectively of the same plate. The luminescence response was then fitted in Scinamic using a 3-parameter agonist logistic fit (hillslope=1, EC50>0, top/bottom unconstrained).

[2] = target: CRBN-DDB1 (Homo sapiens, UniProt Q96SW2); test: Compound binding to CRBN by HTRF assay; details: CRBN-DDB1 2.5 nM, Cy5-Thalidomide 100 nM, 30 min; Ki from geometric mean IC50 by Cheng-Prustoff transformation
Chain of CRBN-DDB1 (Q96SW2 whole entry): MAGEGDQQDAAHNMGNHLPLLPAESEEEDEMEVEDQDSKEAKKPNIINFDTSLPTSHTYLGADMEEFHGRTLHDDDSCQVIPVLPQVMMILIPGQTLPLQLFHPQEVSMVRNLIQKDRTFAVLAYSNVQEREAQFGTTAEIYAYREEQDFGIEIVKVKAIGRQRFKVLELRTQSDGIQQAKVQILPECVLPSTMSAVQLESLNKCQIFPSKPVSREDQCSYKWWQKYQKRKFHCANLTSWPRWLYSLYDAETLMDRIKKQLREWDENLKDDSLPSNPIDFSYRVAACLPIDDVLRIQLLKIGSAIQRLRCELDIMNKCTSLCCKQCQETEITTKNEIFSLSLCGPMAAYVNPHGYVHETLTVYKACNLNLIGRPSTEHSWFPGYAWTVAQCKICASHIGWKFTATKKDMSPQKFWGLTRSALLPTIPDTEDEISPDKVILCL
Chain of CRBN-DDB1 (Q16531 whole entry partner): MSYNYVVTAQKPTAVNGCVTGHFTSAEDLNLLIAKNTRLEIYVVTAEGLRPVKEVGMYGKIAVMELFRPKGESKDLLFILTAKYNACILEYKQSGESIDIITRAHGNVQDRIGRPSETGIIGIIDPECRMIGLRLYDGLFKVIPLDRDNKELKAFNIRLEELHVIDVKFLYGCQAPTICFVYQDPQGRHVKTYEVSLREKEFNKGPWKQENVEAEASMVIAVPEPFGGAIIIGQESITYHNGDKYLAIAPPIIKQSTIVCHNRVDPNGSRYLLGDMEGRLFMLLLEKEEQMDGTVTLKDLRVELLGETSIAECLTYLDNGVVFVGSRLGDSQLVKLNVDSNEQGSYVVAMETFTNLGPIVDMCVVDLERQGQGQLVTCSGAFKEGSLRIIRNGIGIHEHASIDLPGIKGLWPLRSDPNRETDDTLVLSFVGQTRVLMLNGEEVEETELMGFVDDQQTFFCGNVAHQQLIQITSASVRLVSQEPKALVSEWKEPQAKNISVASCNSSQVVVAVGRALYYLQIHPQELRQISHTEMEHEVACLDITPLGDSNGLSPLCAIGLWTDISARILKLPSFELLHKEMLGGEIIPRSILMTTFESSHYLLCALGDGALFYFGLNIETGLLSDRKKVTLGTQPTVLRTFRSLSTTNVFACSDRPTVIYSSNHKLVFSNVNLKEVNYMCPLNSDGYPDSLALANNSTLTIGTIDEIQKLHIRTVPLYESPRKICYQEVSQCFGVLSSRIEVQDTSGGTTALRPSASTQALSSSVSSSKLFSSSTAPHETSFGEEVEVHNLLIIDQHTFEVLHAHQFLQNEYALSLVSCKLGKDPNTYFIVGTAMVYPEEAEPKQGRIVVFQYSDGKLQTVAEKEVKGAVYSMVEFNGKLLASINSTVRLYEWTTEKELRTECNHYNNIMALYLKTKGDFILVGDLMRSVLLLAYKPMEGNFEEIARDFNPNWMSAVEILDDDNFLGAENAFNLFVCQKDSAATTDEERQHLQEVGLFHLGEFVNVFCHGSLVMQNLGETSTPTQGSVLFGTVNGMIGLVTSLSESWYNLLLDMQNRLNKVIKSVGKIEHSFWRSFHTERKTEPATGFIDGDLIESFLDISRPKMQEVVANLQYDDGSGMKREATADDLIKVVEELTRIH
Procedure: Compound activity was monitored in a Homogenous Time-Resolved Fluorescence (HTRF) assay using 1-[5-({2-[2-(2-{[2-(2,6-dioxopiperidin-3-yl)-1,3-dioxo-2,3-dihydro-1H-isoindol-4-yl]oxy}acetamido)ethoxy]ethyl}carbamoyl)pentyl]-3,3-dimethyl-2-[(1E,3E)-5-[(2E)-1,3,3-trimethyl-5-sulfo-2,3-dihydro-1H-indol-2-ylidene]penta-1,3-dien-1-yl]-3H-indol-1-ium-5-sulfonate as a fluorescent probe. Biochemical assays were conducted in Greiner white 384 well HiBase plates (Cat. No 784075-25) in 10 μL total volume. A one pot detection solution of CRBN-DDB1 (2.5 nM), Anti-His Terbium Cryptate Gold (1×, PerkinElmer Cat. #: 61HI2TLB), and Cy5-Thalidomide (100 nM, Tenova Cat.: T52461) was prepared in 20 mM HEPES, 20 mM NaCl, 0.2 mM TCEP, 0.2 mM EDTA, and 0.005% Tween20 was dispensed to each assay plate. Compounds were stored in dry, ambient temperatures at 10 mM. A 10-point, 1:3 dilution series was prepared from 10 mM stock concentrations in Echo-compatible LDV plates. 10 nL of each compound dilution series was dispensed into assays wells using an Echo 650 (Labcyte inc. USA). 10 nL of 10 mM Lenalidomide was transferred into the active-control wells for the assay and 10 nL of DMSO was transferred into the neutral-control wells. The assay was then allowed to incubate for 30 min at ambient temperature after transferring compound. Plate measurements were taken on a Pherastar FSX (BMG Labtech, Germany) using the HTRF Red filter (Ex. 337 nm, em1: 620 nm, em2: 665 nm) (Flashes: 50, Integration time: 60-400 us, Z-height: 10 mm, Ratio-multiplier: 10,000). The HTRF signal was then subsequently normalized to the neutral and active controls. Analysis and IC50 values were derived using KNIME analytics (KNIME Zurich) transformation and fitting within Collaborative Drug Discovery (Collaborative Drug Discovery USA). Ki was derived from the geometric mean of the IC50 values using the Cheng-Prustoff transformation.

[3] = target: T1, CDK2; test: NanoBiT assay (CDK2 degradation); assay type: cell-based; details: 24 hours; for Dmax: HEK293, HEK293 clonal line with CRISPR KI HiBiT tag on CDK2, Endurazine live cell substrate; for CDK2 NanoBiT Dmax (%): HEK293 clonal line with CRISPR KI HiBiT tag on CDK2, Endurazine live cell substrate
Outline: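 HEK293 cells with endogenous HiBiT-tagged CDK2 knock-in and stable LgBiT, with Endurazine live-cell substrate; cells were dosed with compound (30 μM stock) for 24 h at 37 °C, then luminescence was read. Response normalised to plate negative/positive controls and fitted to a 3-parameter logistic (hillslope=1) for EC50.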

Structure (SMILES) | Dmax [1] [%] | Ki [2] [nM] | Dmax [3] [%] | CDK2 NanoBiT Dmax (%) [3]
O=C1CCC(N2Cc3ccc(CNC(=O)O[C@@H]4CCC[C@H]4c4ccccc4)cc3C2=O)C(=O)N1 (mixture of isomers) [Compound 26, rac-(1R,2S)-2-phenylcyclopentyl N-{[2-(2,6-dioxopiperidin-3-yl)-3-oxo-2,3-dihydro-1H-isoindol-5-yl]methyl}carbamate] | 10 to 50 | ≤ 100 |  | 
O=C1CCC(N2Cc3ccc(CNC(=O)O[C@@H]4C[C@H]5CC[C@@H]4O5)cc3C2=O)C(=O)N1 (mixture of isomers) [Compound 27, rac-(1R,2S,4S)-7-oxabicyclo[2.2.1]heptan-2-yl N-{[2-(2,6-dioxopiperidin-3-yl)-3-oxo-2,3-dihydro-1H-isoindol-5-yl]methyl}carbamate] | ≤ 10 | 100 to 1000 |  | 
O=C1CCC(N2Cc3ccc(CNC(=O)O[C@@H]4CO[C@@H]4c4ccccc4)cc3C2=O)C(=O)N1 (mixture of isomers) [Compound 37, rac-(2R,3R)-2-phenyloxetan-3-yl N-{[2-(2,6-dioxopiperidin-3-yl)-3-oxo-2,3-dihydro-1H-isoindol-5-yl]methyl}carbamate] | ≤ 10 | 100 to 1000 |  | 
O=C1CCC(N2Cc3ccc(CNC(=O)OC[C@@H]4C[C@@H]5C=C[C@H]4CC5)cc3C2=O)C(=O)N1 (mixture of isomers) [Compound 70, rac-[(1R,2R,4R)-bicyclo[2.2.2]oct-5-en-2-yl]methyl N-{[2-(2,6-dioxopiperidin-3-yl)-3-oxo-2,3-dihydro-1H-isoindol-5-yl]methyl}carbamate] | 50 to 80 | ≤ 100 |  | 
CC1(C)CCC(OC(=O)NCc2ccc3c(c2)C(=O)N(C2CCC(=O)NC2=O)C3)CC1 (stereo not drawn) [Compound 1, 4,4-dimethylcyclohexyl ((2-(2,6-dioxopiperidin-3-yl)-3-oxoisoindolin-5-yl)methyl)carbamate] | 10 to 50 | 100 to 1000 |  | 
O=C1CCC(N2Cc3ccc(CNC(=O)OCC4CC5(CCC5)C4)cc3C2=O)C(=O)N1 (stereo not drawn) [Compound 2, spiro[3.3]heptan-2-ylmethyl ((2-(2,6-dioxopiperidin-3-yl)-3-oxoisoindolin-5-yl)methyl)carbamate] | 50 to 80 | 100 to 1000 |  | 
O=C1CCC(N2Cc3ccc(CNC(=O)OC4CC5(CCC5)C4)cc3C2=O)C(=O)N1 (stereo not drawn) [Compound 3, spiro[3.3]heptan-2-yl ((2-(2,6-dioxopiperidin-3-yl)-3-oxoisoindolin-5-yl)methyl)carbamate] | 10 to 50 | 100 to 1000 |  | 
O=C1CCC(N2Cc3ccc(CNC(=O)OC4CC5(CCCCC5)C4)cc3C2=O)C(=O)N1 (stereo not drawn) [Compound 4, spiro[3.5]nonan-2-yl ((2-(2,6-dioxopiperidin-3-yl)-3-oxoisoindolin-5-yl)methyl)carbamate] | 50 to 80 | 100 to 1000 |  | 
O=C1CCC(N2Cc3ccc(CNC(=O)OCC45CC(c6ccccc6)(C4)C5)cc3C2=O)C(=O)N1 (stereo not drawn) [Compound 6, (3-phenylbicyclo[1.1.1]pentan-1-yl)methyl ((2-(2,6-dioxopiperidin-3-yl)-3-oxoisoindolin-5-yl)methyl)carbamate] | 10 to 50 |  |  | 
O=C1CCC(N2Cc3ccc(CNc4nnc(C5CC6(CCC6)C5)o4)c(O)c3C2=O)C(=O)N1 (stereo not drawn) [Compound 135, 3-(7-hydroxy-1-oxo-6-(((5-(spiro[3.3]heptan-2-yl)-1,3,4-oxadiazol-2-yl)amino)methyl)isoindolin-2-yl)piperidine-2,6-dione] |  | 100 to 1000 | 50 to 80 | 
O=C1CCC(N2Cc3ccc(CNc4nnc(C5CC6(CCC6)C5)o4)cc3C2=O)C(=O)N1 (stereo not drawn) [Compound 136, 3-(1-oxo-6-(((5-(spiro[3.3]heptan-2-yl)-1,3,4-oxadiazol-2-yl)amino)methyl)isoindolin-2-yl)piperidine-2,6-dione] |  | 100 to 1000 | 50 to 80 | 
O=C1CCC(N2Cc3c(Br)cc(CNc4nnc(C5CC6(CCC6)C5)o4)c(O)c3C2=O)C(=O)N1 (stereo not drawn) [Compound 137, 3-(4-bromo-7-hydroxy-1-oxo-6-(((5-(spiro[3.3]heptan-2-yl)-1,3,4-oxadiazol-2-yl)amino)methyl)isoindolin-2-yl)piperidine-2,6-dione] |  | ≤ 100 | 50 to 80 | 
O=C1CCC(N2Cc3c(Br)cc(CNc4nnc(C5CC6(CCC6)C5)o4)cc3C2=O)C(=O)N1 (stereo not drawn) [Compound 138, 3-(4-bromo-1-oxo-6-(((5-(spiro[3.3]heptan-2-yl)-1,3,4-oxadiazol-2-yl)amino)methyl)isoindolin-2-yl)piperidine-2,6-dione] |  | ≤ 100 | 50 to 80 | 
O=C1CCC(N2Cc3c(cc(CNc4nnc(C5CC6(CCC6)C5)o4)cc3C(F)(F)F)C2=O)C(=O)N1 (stereo not drawn) [Compound 139, 3-(1-oxo-6-(((5-(spiro[3.3]heptan-2-yl)-1,3,4-oxadiazol-2-yl)amino)methyl)-4-(trifluoromethyl)isoindolin-2-yl)piperidine-2,6-dione] |  | 100 to 1000 |  | C (C represents a Dmax value of >50% and ≤80%)
O=C1CCC(N2Cc3c(Cl)cc(CNc4nnc(C5CC6(CCC6)C5)o4)cc3C2=O)C(=O)N1 (stereo not drawn) [Compound 140, 3-(4-chloro-1-oxo-6-(((5-(spiro[3.3]heptan-2-yl)-1,3,4-oxadiazol-2-yl)amino)methyl)isoindolin-2-yl)piperidine-2,6-dione] |  | 100 to 1000 | 50 to 80 | 
O=C1CCC(N2Cc3ccc(CNc4nnc(C5CCCCC5)o4)cc3C2=O)C(=O)N1 (stereo not drawn) [Compound 141, 3-(6-(((5-cyclohexyl-1,3,4-oxadiazol-2-yl)amino)methyl)-1-oxoisoindolin-2-yl)piperidine-2,6-dione] |  | 100 to 1000 | 10 to 50 | 
O=C1CCC(N2Cc3c(F)cc(CNc4nnc(C5CC6(CCC6)C5)o4)cc3C2=O)C(=O)N1 (stereo not drawn) [Compound 142, 3-(4-fluoro-1-oxo-6-(((5-(spiro[3.3]heptan-2-yl)-1,3,4-oxadiazol-2-yl)amino)methyl)isoindolin-2-yl)piperidine-2,6-dione] |  | 100 to 1000 | 50 to 80 | 
O=C1CCC(N2Cc3c(cc(CNc4nnc(C5CC6(CCC6)C5)o4)cc3C(F)F)C2=O)C(=O)N1 (stereo not drawn) [Compound 143, 3-(4-(difluoromethyl)-1-oxo-6-(((5-(spiro[3.3]heptan-2-yl)-1,3,4-oxadiazol-2-yl)amino)methyl)isoindolin-2-yl)piperidine-2,6-dione] |  | ≤ 100 | 10 to 50 | 
Nc1c(CNc2nnc(C3CC4(CCC4)C3)o2)ccc2c1C(=O)N(C1CCC(=O)NC1=O)C2 (stereo not drawn) [Compound 144, 3-(7-amino-1-oxo-6-(((5-(spiro[3.3]heptan-2-yl)-1,3,4-oxadiazol-2-yl)amino)methyl)isoindolin-2-yl)piperidine-2,6-dione] |  | 100 to 1000 | 10 to 50 | 
O=C1CCC(N2Cc3c(cc(CNc4nnc(C5CC6(CCC6)C5)o4)cc3C(F)(F)F)C2=O)C(=O)N1 (stereo not drawn) [Compound 145, 3-(1-oxo-6-(((5-(spiro[3.3]heptan-2-yl)-1,3,4-oxadiazol-2-yl)amino)methyl)-4-(trifluoromethyl)isoindolin-2-yl)piperidine-2,6-dione] |  | 100 to 1000 |  | B (B represents a Dmax value of >10% and ≤50%)

Source: patent US20240317706A1, “COMPOUNDS THAT MEDIATE PROTEIN DEGRADATION AND METHODS OF USE THEREOF” (Monte Rosa Therapeutics, Inc., priority 2021, published 2024)
